Reference: ChEMBL document CHEMBL5532648, “Development of a specific and potent IGF2BP1 inhibitor: A promising therapeutic agent for IGF2BP1-expressing cancers” (Eur J Med Chem, 2024)
Activity calls are given as the source filed them. The calls are words filed in the database; no cut-off is given here.

What was measured:
[1] = target: T1, Insulin-like growth factor 2 mRNA-binding protein 1 (Homo sapiens, UniProt Q9NZI8); assay: Inhibition of human IGF2BP1 transfected in RKO cells incubated for 24 hrs by split-luciferase assay; assay type: cell-based
NCI-H1299 [2] = assay: Inhibition of wound healing in human NCI-H1299 cells by IncuCyte live-cell imaging analysis; assay type: functional, cell-based
NCI-H1299 [3] = assay: Inhibition of wound healing in human NCI-H1299 cells at 1.25 to 5 uM by IncuCyte live-cell imaging analysis; assay type: functional, cell-based; details: dose 1.25-5 µM
LKR-M cell [4] = assay: Inhibition of wound healing in mouse LKR-M cells transfected with IGF2BP1 at 5 uM by IncuCyte live-cell imaging analysis; assay type: functional, cell-based
SW480 [5] = assay: Induction of apoptosis in human SW480 cells; assay type: functional, cell-based; details: dose 2-4 µM
LKR-M cell [6] = assay: Antiproliferative activity against mouse LKR-M cells transfected with GFP; assay type: functional, cell-based
RKO = assay: Induction of apoptosis in human RKO cells; assay type: functional, cell-based
SW480 [7] = assay: Inhibition of cell migration in human SW480 cells at 2 uM; assay type: functional, cell-based
LKR-M cell [8] = assay: Inhibition of wound healing in mouse LKR-M cells transfected with GFP at 5 uM by IncuCyte live-cell imaging analysis; assay type: functional, cell-based
LKR-M cell [9] = assay: Antiproliferative activity against mouse LKR-M cells transfected with GFP-IGF2BP1 at 1.25 uM; assay type: functional, cell-based
SW480 [10] = assay: Inhibition of cell migration in IGF2BP1 knockout human SW480 cells at 2 uM; assay type: functional, cell-based
LKR-M cell [11] = assay: Antiproliferative activity against mouse LKR-M cells transfected with GFP-IGF2BP1; assay type: functional, cell-based
[12] = target: T1, Insulin-like growth factor 2 mRNA-binding protein 1; assay: Binding affinity to recombinant full-length human IGF2BP1 KH34 domain by MST assay
NCI-H1299 [13] = assay: Antiproliferative activity against human NCI-H1299 cells at 1.25 to 5 uM; assay type: functional, cell-based; details: dose 1.25-5 µM
HCT-116 [14] = assay: Antiproliferative activity against human HCT-116 cells; assay type: functional, cell-based
NCI-H1299 [15] = assay: Antiproliferative activity against human NCI-H1299 cells; assay type: functional, cell-based
HCT-116 [16] = assay: Induction of apoptosis in human HCT-116 cells; assay type: functional, cell-based; details: dose 2-4 µM

T1 sequence (Q9NZI8 whole entry): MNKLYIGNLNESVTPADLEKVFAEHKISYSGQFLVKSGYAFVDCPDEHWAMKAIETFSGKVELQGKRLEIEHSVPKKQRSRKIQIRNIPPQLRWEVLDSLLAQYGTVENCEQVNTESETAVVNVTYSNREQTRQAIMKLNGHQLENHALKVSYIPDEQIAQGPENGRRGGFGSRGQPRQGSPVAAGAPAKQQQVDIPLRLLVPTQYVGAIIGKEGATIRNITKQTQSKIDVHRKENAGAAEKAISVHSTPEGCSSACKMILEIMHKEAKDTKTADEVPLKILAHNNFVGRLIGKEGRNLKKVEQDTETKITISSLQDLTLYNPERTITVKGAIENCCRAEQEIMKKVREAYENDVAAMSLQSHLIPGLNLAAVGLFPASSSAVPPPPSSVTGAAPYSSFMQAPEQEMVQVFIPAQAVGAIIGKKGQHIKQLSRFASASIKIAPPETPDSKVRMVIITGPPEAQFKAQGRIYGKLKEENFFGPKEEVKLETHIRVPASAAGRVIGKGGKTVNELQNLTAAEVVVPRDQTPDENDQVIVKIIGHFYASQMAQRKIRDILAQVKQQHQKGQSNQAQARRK

Row | Compound | inhibition [1] | IC50 (NCI-H1299 [2]) [µM] | further results
1 | Cc1ccc(N2CCN(C(=O)c3ccc(Cn4cnnn4)cc3)CC2)cc1 | inactive |  | 
2 | Cc1ccc(N2CCN(C(=O)c3ccc(Cn4cc(CO)c5ccccc54)cc3)CC2)cc1 | Active | 2.5 | inhibition (NCI-H1299 [3]): Active
3 | O=C(c1ccc(Cn2ccnc2)cc1)N1CCN(c2ccc3c(c2)OCO3)CC1 | inactive |  | 
4 | Cc1ccc(N2CCN(C(=O)c3ccc(CN4CCOCC4)cc3)CC2)cc1 | inactive |  | 
5 | N#C[Se]Cc1ccc(C(=O)N2CCCC(Nc3ccc4c(c3)OCO4)C2)cc1 (centres undefined) | Active | 10 | inhibition (NCI-H1299 [3]): Active
6 | O=C(c1ccc(Cn2cc(CO)c3ccccc32)cc1)N1CCN(c2ccc3c(c2)OCO3)CC1 |  | 0.7 | inhibition (LKR-M cell [4]): Active; Activity (SW480 [5]): Dose-Dependent Effect; Activity (LKR-M cell [6]): inactive; Activity (RKO): inactive; inhibition (SW480 [7]): Active; inhibition (LKR-M cell [8]): inactive; Activity (LKR-M cell [9]): Active; inhibition (SW480 [10]): inactive; Activity (LKR-M cell [11]): Dose-Dependent Effect; Kd [12]: 0.84 µM; Activity (NCI-H1299 [13]): Active; Activity (HCT-116 [14]): Dose-Dependent Effect; inhibition (NCI-H1299 [3]): Active; Activity (NCI-H1299 [15]): Dose-Dependent Effect; Activity (HCT-116 [16]): Dose-Dependent Effect
7 | Cc1ccc(N2CCN(C(=O)c3ccc(Cn4cnc([N+](=O)[O-])n4)cc3)CC2)cc1 | Active | 8 | inhibition (NCI-H1299 [3]): Active
8 | O=C(c1ccc(Cn2cnnn2)cc1)N1CCN(c2ccc3c(c2)OCO3)CC1 | inactive |  | 
9 | O=C(c1ccc(Cn2cnnn2)cc1)N1CCCC(Nc2ccc3c(c2)OCO3)C1 (centres undefined) | Active | 10 | 
10 | NC(=S)NCc1ccc(C(=O)N2CCCC(Nc3ccc4c(c3)OCO4)C2)cc1 (centres undefined) | Active | 30 | 
11 | O=C(c1ccc(Cn2cncn2)cc1)N1CCCC(Nc2ccc3c(c2)OCO3)C1 (centres undefined) | Active |  | 
12 | Cc1ccc(N2CCN(C(=O)c3ccc(C[Se]C#N)cc3)CC2)cc1 | inactive |  | 
13 | O=C(c1ccc(CN2CCCC2)cc1)N1CCN(c2ccc3c(c2)OCO3)CC1 | Active | > 100 | 
14 | O=C(c1ccc(CN2CCCC2)cc1)N1CCCC(Nc2ccc3c(c2)OCO3)C1 (centres undefined) | Active |  | 
15 | Cc1ccc(N2CCN(C(=O)c3ccc(CNC(N)=S)cc3)CC2)cc1 | inactive |  | 
16 | NC(=S)NCc1ccc(C(=O)N2CCN(c3ccc4c(c3)OCO4)CC2)cc1 | Active | 4.5 | inhibition (NCI-H1299 [3]): Active
17 | N#C[Se]Cc1ccc(C(=O)N2CCN(c3ccc4c(c3)OCO4)CC2)cc1 | inactive |  | 
18 | O=C(c1ccc(CN2CCOCC2)cc1)N1CCCC(Nc2ccc3c(c2)OCO3)C1 (centres undefined) | Active |  | 
19 | Cc1ccc(N2CCN(C(=O)c3ccc(CN4CCCC4)cc3)CC2)cc1 | inactive |  | 
20 | O=C(c1ccc(Cn2ccnc2)cc1)N1CCCC(Nc2ccc3c(c2)OCO3)C1 (centres undefined) | Active |  | 
21 | O=C(c1ccc(Cn2cncn2)cc1)N1CCN(c2ccc3c(c2)OCO3)CC1 | inactive |  | 
22 | Cc1ccc(N2CCN(C(=O)c3ccc(Cn4ccnc4)cc3)CC2)cc1 | inactive |  | 
23 | Cc1ccc(N2CCN(C(=O)c3ccc(Cn4cncn4)cc3)CC2)cc1 | inactive |  | 
24 | O=C(c1ccc(Cn2cnc([N+](=O)[O-])n2)cc1)N1CCN(c2ccc3c(c2)OCO3)CC1 | inactive |  | 
25 | O=C(c1ccc(Cn2cnc([N+](=O)[O-])n2)cc1)N1CCCC(Nc2ccc3c(c2)OCO3)C1 (centres undefined) | Active | 20 | 
26 | O=C(c1ccc(CN2CCOCC2)cc1)N1CCN(c2ccc3c(c2)OCO3)CC1 | Active | > 100 | 
